From US12240844B2 (Voronoi, Inc., priority 2019, dated 2025)

Key:
LRRK2 = LRRK2 (Homo sapiens, UniProt Q5S007); experiment: LRRK2 enzyme inhibition, ADP-Glo kinase assay; format: biochemical; design: purchased Invitrogen PR8604B
Outline: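 ADP-Glo luminescence read after 2 h at 25° C, 10 μM ATP, 25 ng purified human LRRK2 and […] substrate in Tris-HCl pH7.4 buffer with MgCl2, BSA, DTT. Twelve final concentrations, 50 μM down to 0.000001024 μM; IC50 (nM) from inhibition relative to untreated solvent control.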

MDA-MB-231 cell line = experiment: MDA-MB-231 cancer cell proliferation inhibition (Cell Titer-Glo); format: cell-based; conditions: Homo sapiens, MDA-MB-231 triple-negative breast cancer cell line, 72 hours
Procedure: In order to evaluate the cancer cell proliferation inhibitory activity of the compounds of the present invention, the following experiments were performed.
To evaluate the cancer cell proliferation inhibitory effect, the cell growth rate analysis was performed while culturing MDA-MB-231 cell line (Korean Cell Line Bank #30026) and MDA-MB-468 cell line as the triple-negative breast cancer cell line, and SHP-77 (ATCC #CRL-2195) as the small cell lung cancer cell line in DMEM (HyClone #SH30243) and RPMI medium (HyClone #SH3027.01), respectively. More specifically, the cell lines were each plated at 2000 cells/100 μl in each well of a 96-well flat-bottom plate (coming #3903), and then the example compounds having eleven concentrations which were diluted by ⅓ so that the final concentrations were 10.000000, 3.333333, 1.111111, 0.370370, 0.123457, 0.041152, 0.013717, 0.004572, 0.001524, 0.000508 and 0.000169 μM were treated. After 72 hours, 100 μl of Cell Titer-Glo (Promega G7573) was treated, incubated at RT for 10 minutes, and then luminescence was measured using a microplate reader. The measured luminescence degree was calculated as GI50 using Prism (version 8.2 GraphPad) software.
In the table below, the following designations were used for the evaluation of proliferation inhibitory activity.

[1] = molecular target: T1, human GST-DYRK1A (full length) (Homo sapiens, UniProt Q13627); experiment: GST-DYRK1A enzyme inhibition, ADP-Glo kinase assay; format: biochemical; conditions: read-out: DYRK1 IC50
T1 construct: purified human GST-DYRK1A (full length, Thermo scientifics) enzyme; GST; purchased Thermo scientifics
Outline: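 ADP-Glo luminescence quantified kinase activity after a 1 h, 25° C reaction of 10 ng full-length GST-tagged human DYRK1A, substrate and 10 uM ATP in Tris-HCl buffer pH 7.4 with MgCl2, BSA and DTT. Triplicate IC50 values (nM) calculated relative to untreated solvent control.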

human GST-CLK1 (129-end) = molecular target: T2, human GST-CLK1 (129-end) (Homo sapiens, UniProt P49759); experiment: GST-CLK1 enzyme inhibition, ADP-Glo kinase assay; format: biochemical; conditions: ATP 10 uM
T2 construct: purified human GST-CLK1 (129-end, Signalchem) enzyme; GST; purchased Signalchem
T2 sequence (P49759 129-484 limits assumed): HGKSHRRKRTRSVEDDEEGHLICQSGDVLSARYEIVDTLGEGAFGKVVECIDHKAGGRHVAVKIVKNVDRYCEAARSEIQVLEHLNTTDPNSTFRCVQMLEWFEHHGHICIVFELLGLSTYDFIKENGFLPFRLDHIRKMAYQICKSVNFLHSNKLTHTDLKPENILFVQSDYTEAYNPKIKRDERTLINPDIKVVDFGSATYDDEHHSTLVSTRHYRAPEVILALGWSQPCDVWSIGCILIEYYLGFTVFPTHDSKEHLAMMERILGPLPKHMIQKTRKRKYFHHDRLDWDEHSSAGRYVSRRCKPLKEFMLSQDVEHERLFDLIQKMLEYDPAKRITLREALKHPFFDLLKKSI
Outline: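 ADP formation was read by ADP-Glo luminescence after 1 h at 25° C with 3 ng human GST-CLK1 (129-end), substrate and 10 uM ATP in Tris pH 7.4 buffer containing MgCl2, BSA and DTT. Inhibition relative to untreated solvent control gave IC50 (nM), run in triplicate.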

LRRK2 (G2019S) = LRRK2 (G2019S) (Homo sapiens, UniProt Q5S007, G2019S); experiment: LRRK2 G2019S enzyme inhibition, ADP-Glo kinase assay; format: biochemical; design: purchased SignalChem L10-12GG
Sequence of LRRK2 (G2019S) (Q5S007 970-2527 G2019S limits assumed): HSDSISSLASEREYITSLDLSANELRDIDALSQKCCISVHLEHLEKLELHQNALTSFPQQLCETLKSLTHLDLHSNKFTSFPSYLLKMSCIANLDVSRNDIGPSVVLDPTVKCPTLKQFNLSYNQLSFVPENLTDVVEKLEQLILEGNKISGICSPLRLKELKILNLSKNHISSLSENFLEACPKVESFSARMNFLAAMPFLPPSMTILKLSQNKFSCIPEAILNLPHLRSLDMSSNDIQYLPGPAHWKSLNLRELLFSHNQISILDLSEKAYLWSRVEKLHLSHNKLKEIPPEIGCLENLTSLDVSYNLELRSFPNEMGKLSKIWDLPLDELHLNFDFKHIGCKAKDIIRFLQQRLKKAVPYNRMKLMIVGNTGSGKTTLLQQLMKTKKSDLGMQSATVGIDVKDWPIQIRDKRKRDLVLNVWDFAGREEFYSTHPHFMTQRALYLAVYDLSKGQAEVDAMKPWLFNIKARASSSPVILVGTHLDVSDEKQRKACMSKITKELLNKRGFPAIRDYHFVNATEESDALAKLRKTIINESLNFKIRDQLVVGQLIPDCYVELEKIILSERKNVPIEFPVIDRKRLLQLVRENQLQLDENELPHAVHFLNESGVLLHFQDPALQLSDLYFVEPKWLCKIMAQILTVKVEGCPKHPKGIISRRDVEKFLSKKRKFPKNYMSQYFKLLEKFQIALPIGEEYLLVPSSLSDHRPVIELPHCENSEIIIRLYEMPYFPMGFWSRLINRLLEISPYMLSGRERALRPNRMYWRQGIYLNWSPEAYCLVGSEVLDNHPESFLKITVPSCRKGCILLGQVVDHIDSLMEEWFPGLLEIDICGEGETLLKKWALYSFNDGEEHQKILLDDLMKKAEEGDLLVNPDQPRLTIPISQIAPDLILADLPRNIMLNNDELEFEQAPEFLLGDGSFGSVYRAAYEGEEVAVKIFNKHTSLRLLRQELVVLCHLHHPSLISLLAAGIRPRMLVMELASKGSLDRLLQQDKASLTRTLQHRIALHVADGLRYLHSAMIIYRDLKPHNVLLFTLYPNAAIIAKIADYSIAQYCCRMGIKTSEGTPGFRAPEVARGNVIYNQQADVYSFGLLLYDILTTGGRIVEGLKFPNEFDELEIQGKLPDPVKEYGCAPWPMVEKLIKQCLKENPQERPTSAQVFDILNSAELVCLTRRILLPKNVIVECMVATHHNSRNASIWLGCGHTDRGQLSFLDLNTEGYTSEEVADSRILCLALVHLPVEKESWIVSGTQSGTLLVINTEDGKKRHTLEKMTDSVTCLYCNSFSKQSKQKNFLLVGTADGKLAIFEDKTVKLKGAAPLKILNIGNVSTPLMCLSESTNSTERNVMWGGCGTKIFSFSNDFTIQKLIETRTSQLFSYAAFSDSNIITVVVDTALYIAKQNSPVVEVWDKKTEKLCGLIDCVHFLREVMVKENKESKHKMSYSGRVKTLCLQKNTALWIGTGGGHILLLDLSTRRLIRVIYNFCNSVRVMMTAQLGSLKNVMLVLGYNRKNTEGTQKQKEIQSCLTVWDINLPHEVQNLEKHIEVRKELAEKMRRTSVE
Outline: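 Activity read as ADP-Glo luminescence, normalized to untreated solvent control, with IC50 (nM) fitted over 12 final compound levels (top 50 μM). Reaction: 2 h, 25° C, human LRRK2 G2019S 16 ng, ATP 25 μM, substrate 0.2 μg, in Tris-HCl pH 7.4 with MgCl2, BSA and DTT.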

human DYRK1A and Tau = experiment: Tau phosphorylation inhibition, ClariCELL Kinase Cell-Based Assay (Carnabio)
Procedure: Tau phosphorylation inhibitory efficacy was measured using the ClariCELL™ Kinase Cell-Based Assay service of Carnabio, located in the United States. The compounds are exposed to human embryonic kidney ([…]) cells transiently expressing human DYRK1A and Tau, and then the cells are lysed to release cellular proteins. At this time, the released Tau is captured on a plate, and the degree of phosphorylation is quantified by ELISA using an antibody specific for Tau phosphorylation.

Sequence of LRRK2 (Q5S007 970-2527 limits assumed): as the sequence (Q5S007 970-2527 G2019S limits assumed) above, with S1050G counted along it

Compound	IC50 (LRRK2)	GI50 (MDA-MB-231 cell line)	IC50 [1]	IC50 (human GST-CLK1 (129-end))	IC50 (LRRK2 (G2019S))	inhibition at 0.25 µM (human DYRK1A and Tau)	inhibition at 0.5 µM (human DYRK1A and Tau)	inhibition at 1 µM (human DYRK1A and Tau)
CCNc1cc(Nc2ccc(C(=O)N3CCN(C4CC4)CC3)c3c2OCC3)nc2[nH]cc(C(F)(F)F)c12 [Example 250, (4-cyclopropylpipe razin-1-yl)(7-((4-(ethylamino)-3-(trifluoromethyl)-1H-pyrrolo[2,3-b]pyridin-6-yl)amino)-2,3-dihydrobenzofuran-4-yl)methanone]			101 to 300 nM	< 100 nM	101 to 300 nM	34%	59.8%	82.8%
CCNc1cc(Nc2ccc(S(C)(=O)=O)cc2OC)nc2[nH]ccc12 [Example 26, N^4-ethyl-N^6-(2-methoxy-4-(methylsulfonyl)phenyl)-1H-pyrrolo[2,3-b]pyridine-4,6-diamine]	< 100 nM		301 to 1000 nM	301 to 1000 nM	< 100 nM			
COc1cc(S(C)(=O)=O)ccc1Nc1cc(NC2CC2)c2c(C(F)(F)F)c[nH]c2n1 [Example 187, N^4-cyclopropyl-N^6-(2-methoxy-4-(methylsulfonyl)phenyl)-3-(trifluoromethyl)-1H-pyrrolo[2,3-b]pyridine-4,6-diamine]	301 to 1000 nM		301 to 1000 nM	301 to 1000 nM	301 to 1000 nM			
CNc1cc(Nc2ccc(S(=O)(=O)N3CCOCC3)cc2OC)nc2[nH]cc(Cl)c12 [Example 64, 3-chloro-N^6-(2-methoxy-4-(morpholinosulfonyl)phenyl)-N^4-methyl-1H-pyrrolo[2,3-b]pyridine-4,6-diamine]	301 to 1000 nM		301 to 1000 nM	301 to 1000 nM	301 to 1000 nM			
CC(C)CNc1cc(Nc2ccc(C(=O)N3CCOCC3)c3c2OCCO3)nc2[nH]cc(C(F)(F)F)c12 [Example 156, (8-((4-(isobutylamino)-3-(trifluoromethyl)-1H-pyrrolo[2,3-b]pyridin-6-yl)amino)-2,3-dihydrobenzo[b] [1,4]dioxin-5-yl)(morpholino) methanone]	< 100 nM		301 to 1000 nM	301 to 1000 nM	301 to 1000 nM			
CCNc1cc(Nc2ccc(P(C)(=O)O)cc2OC)nc2[nH]ccc12 [Example 32, (4-((4-(ethylamino)-1H-pyrrolo[2,3-b]pyridin-6-yl)amino)-3-methoxyphenyl) (methyl)phosphinic acid]	301 to 1000 nM		301 to 1000 nM	301 to 1000 nM	301 to 1000 nM			
CCNc1cc(Nc2ccc(P(C)(=O)N3CCC(N4CCOCC4)CC3)cc2OC)nc2[nH]cc(C(F)(F)F)c12 (stereo not drawn) [Example 208, (4-((4-(ethylamino)-3-(trifluoromethyl)-1H-pyrrolo[2,3-b]pyridin-6-yl)amino)-3-methoxyphenyl) (methyl)(4-morpholinopiperidin-1-yl)phosphine oxide]	< 100 nM		101 to 300 nM	< 100 nM	< 100 nM			
CS(=O)(=O)CCNc1cc(Nc2ccc(C(=O)N3CCOCC3)c3c2OCCO3)nc2[nH]cc(C#N)c12 [Example 110, 4-((2-(methylsulfonyl)ethyl)amino)-6-((8-(morpholine-4-carbonyl)-2,3-dihydrobenzo[b] [1,4]dioxin-5-yl)amino)-1H-pyrrolo[2,3-b]pyridine-3-carbonitrile]	< 100 nM		301 to 1000 nM	101 to 300 nM	< 100 nM			

More lines, main results first:

IC50 (LRRK2)	GI50 (MDA-MB-231 cell line)	IC50 [1]	IC50 (human GST-CLK1 (129-end))	IC50 (LRRK2 (G2019S))	Compound	inhibition at 0.25 µM (human DYRK1A and Tau)	inhibition at 0.5 µM (human DYRK1A and Tau)	inhibition at 1 µM (human DYRK1A and Tau)
< 100 nM	301 to 1000 nM	< 100 nM	< 100 nM		COCCNc1cc(Nc2ccc(P3(=O)CCN(C4COC4)CC3)cc2OC)nc2[nH]cc(C(F)(F)F)c12 [Example 41, 4-(3-methoxy-4-((4-((2-methoxyethyl)amino)-3-(trifluoromethyl)-1H-pyrrolo[2,3-b]pyridin-6-yl)amino)phenyl)-1-(oxetan-3-yl)-1,4-azaphosphinane 4-oxide]			
< 100 nM		< 100 nM	< 100 nM	< 100 nM	CNc1cc(Nc2ccc(S(=O)(=O)N3CCC(N4C[C@@H]5C[C@H]4CO5)CC3)cc2OC)nc2[nH]cc(C(F)(F)F)c12 [Example 242, N^6-(4-((4-((1S,4S)-2-oxa-5-azabicyclo[2.2.1]heptan-5-yl)piperidin-1-yl)sulfonyl)-2-methoxyphenyl)-N^4-methyl-3-(trifluoromethyl)-1H-pyrrolo[2,3-b]pyridine-4,6-diamine]	49.8%	77.2%	108%
< 100 nM	301 to 1000 nM	101 to 300 nM	< 100 nM	< 100 nM	O=C(c1ccc(Nc2cc(NC3CC3)c3c(C(F)(F)F)c[nH]c3n2)c2c1OCCO2)N1CCC(N2CCOCC2)CC1 [Example 163, (8-((4-(cyclopropylamino)-3-(trifluoromethyl)-1H-pyrrolo[2,3-b]pyridin-6-yl)amino)-2,3-dihydrobenzo[b] [1,4]dioxin-5-yl)(4-morpholinopiperidin-1-yl)methanone]			
101 to 300 nM	301 to 1000 nM	< 100 nM	< 100 nM	101 to 300 nM	CNc1cc(Nc2ccc(P3(=O)CCN(C4CCOCC4)CC3)cc2OC)nc2[nH]cc(C(F)(F)F)c12 [Example 216, 4-(3-methoxy-4-((4-(methylamino)-3-(trifluoromethyl)-1H-pyrrolo[2,3-b]pyridin-6-yl)amino)phenyl)-1-(tetrahydro-2H-pyran-4-yl)-1,4-azaphosphinane 4-oxide]	22.8%	30.3%	49.5%
101 to 300 nM	301 to 1000 nM	101 to 300 nM	301 to 1000 nM		CCNc1cc(Nc2ccc(P3(=O)CCN(C4COC4)CC3)cc2OC)nc2[nH]cc(C(F)(F)F)c12 [Example 39, 4-(4-((4-(ethylamino)-3-(trifluoromethyl)-1H-pyrrolo[2,3-b]pyridin-6-yl)amino)-3-methoxyphenyl)-1-(oxetan-3-yl)-1,4-azaphosphinane 4-oxide]			
< 100 nM		< 100 nM	< 100 nM	< 100 nM	CCNc1cc(Nc2ccc(C(=O)N3CC[C@H](N4CCOCC4)C3)c3c2OCC3)nc2[nH]cc(C(F)(F)F)c12 [Example 215, (S)-(7-((4-(ethylamino)-3-(trifluoromethyl)-1H-pyrrolo[2,3-b]pyridin-6-yl)amino)-2,3-dihydrobenzofuran-4-yl)(3-morpholinopyrrolidin-1-yl)methanone]	30%	70.8%	82%
		< 100 nM	< 100 nM	< 100 nM	C=CCNc1cc(Nc2ccc(C(=O)N3CCC(N4CCOCC4)CC3)c3c2OCC3)nc2[nH]cc(C(F)(F)F)c12 [Example 255, (7-((4-(allylamino)-3-(trifluoromethyl)-1H-pyrrolo[2,3-b]pyridin-6-yl)amino)-2,3-dihydrobenzofuran-4-yl)(4-morpholinopiperidin-1-yl)methanone]	47.7%	89.2%	104%
